What was measured:
hNAMPT protein = hNAMPT protein (Homo sapiens (Human), UniProt P43490); experiment: NAMPT enzyme assay (TR-FRET/HTRF, BodiPY ligand, anti 6His-Tb); type: binding; details: for IC50: NAMPT IC50 range class, read-out: IC50; for inhibition at 1 µM: compound concentration 1 μM, read-out: Percent Inhibition
Method in brief: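 TR-FRET binding assay in which His-tagged human NAMPT with anti-6His-Tb is displaced by compound from a BodiPY ligand, incubated 1 h at rt in the dark. Excitation was at 320 nm, with the 520/486 nm emission ratio read. IC50 was fitted from inhibition relative to DMSO controls.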

PC3 cells = experiment: PC3 growth inhibition (Cell-titer glo, 72 hours); type: cell-based; details: Homo sapiens, PC-3; compound concentration 1.667 μM; PC3 cells, 72 hours, Cell-titer glo; read-out: Percent Inhibition (PC3 growth inhibition)
Method in brief: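 PC3 cells in RPMI1640 seeded overnight at 37 °C, 5% CO2, then exposed to compound diluted in AIM serum-free medium for 72 h. Viability by CellTiter-Glo luminescence vs DMSO controls; single-concentration % remaining viability (1 μM or 1.667 μM), or GI50/LD50 from curves.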

Chain of hNAMPT protein (P43490 whole entry): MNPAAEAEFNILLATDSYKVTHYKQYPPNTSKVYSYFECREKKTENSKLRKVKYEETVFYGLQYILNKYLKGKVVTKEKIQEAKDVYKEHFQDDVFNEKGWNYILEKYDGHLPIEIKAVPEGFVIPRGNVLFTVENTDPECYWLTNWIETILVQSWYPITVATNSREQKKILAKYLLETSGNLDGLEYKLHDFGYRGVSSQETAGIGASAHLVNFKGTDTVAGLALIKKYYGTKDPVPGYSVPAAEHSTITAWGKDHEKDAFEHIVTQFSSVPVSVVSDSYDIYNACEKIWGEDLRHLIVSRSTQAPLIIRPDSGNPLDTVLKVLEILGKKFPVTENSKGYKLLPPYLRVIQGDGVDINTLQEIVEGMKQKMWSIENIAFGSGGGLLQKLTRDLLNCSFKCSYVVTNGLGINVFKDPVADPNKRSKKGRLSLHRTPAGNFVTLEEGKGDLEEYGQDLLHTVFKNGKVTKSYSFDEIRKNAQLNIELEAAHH

SMILES | IC50 (hNAMPT protein) | inhibition at 1 µM (hNAMPT protein) | inhibition at 1.667 µM (PC3 cells)
O=C(NCCCc1ncc[nH]1)c1ccc2nc(OCc3c[nH]cn3)c(-c3ccc(F)cc3)nc2c1 [Compound I-356, 3-(4-fluorophenyl)-2-(1H-imidazol-4-ylmethoxy)-N-[3-(1H-imidazol-2-yl)propyl]quinoxaline-6-carboxamide] | 500 to 1000 nM | 63% | 4%
O=C(NCCCc1ncc[nH]1)c1ccc2nc(C3CC3)c(-c3ccc(F)cc3)nc2c1 [Compound I-357, 2-cyclopropyl-3-(4-fluorophenyl)-N-[3-(1H-imidazol-2-yl)propyl]quinoxaline-6-carboxamide] | 100 to 500 nM | 83% | 1%
CCCOc1nc2ccc(C(=O)NCCCc3nnc[nH]3)cc2nc1-c1ccc(F)cc1 [Compound I-358, 3-(4-fluorophenyl)-2-propoxy-N-[3-(4H-1,2,4-triazol-3-yl)propyl]quinoxaline-6-carboxamide] | 100 to 500 nM | 78% | 3%
CC(C)Oc1nc2ccc(C(=O)NCCCc3ccc(N)nc3)cc2nc1-c1ccc(F)cc1 [Compound I-359, N-[3-(6-aminopyridin-3-yl)propyl]-3-(4-fluorophenyl)-2-isopropoxyquinoxaline-6-carboxamide] | 500 to 1000 nM | 46% | 3%
O=C(NCCCc1ncc[nH]1)c1ccc2nc(O[C@H]3CCOC3)c(-c3ccc(Cl)cc3)nc2c1 [Compound I-360, 3-(4-chlorophenyl)-N-[3-(1H-imidazol-2-yl)propyl]-2-[(3S)-tetrahydrofuran-3-yloxy]quinoxaline-6-carboxamide] | < 100 nM | > 99% | 2%
O=C(NCCCc1ncc[nH]1)c1ccc2nc(-c3ccc(F)cc3)c(-c3ccc(Cl)cc3)nc2c1 [Compound I-361, 3-(4-chlorophenyl)-2-(4-fluorophenyl)-N-[3-(1H-imidazol-2-yl)propyl]quinoxaline-6-carboxamide] | < 100 nM | 98% | 1%
Nc1ccc(CCCNC(=O)c2ccc3nc(N4CCOCC4)c(-c4ccc(F)cc4)nc3c2)cn1 [Compound I-362, N-[3-(6-aminopyridin-3-yl)propyl]-3-(4-fluorophenyl)-2-(morpholin-4-yl)quinoxaline-6-carboxamide] | 100 to 500 nM | 74% | 2%
N#Cc1ccc(-c2nc3cc(C(=O)NCCCc4ncc[nH]4)ccc3nc2-c2ccc(F)cc2)s1 [Compound I-363, 3-(5-cyano-2-thienyl)-2-(4-fluorophenyl)-N-[3-(1H-imidazol-2-yl)propyl]quinoxaline-6-carboxamide] | 100 to 500 nM | 78% | 3%
O=C(NCCCc1ncc[nH]1)c1ccc2nc(OCc3ccc(Cl)cc3)c(-c3ccc(F)cc3)nc2c1 [Compound I-364, 2-[(4-chlorobenzyl)oxy]-3-(4-fluorophenyl)-N-[3-(1H-imidazol-2-yl)propyl]quinoxaline-6-carboxamide] | 100 to 500 nM | 73% | 4%
Cc1ccc(Cl)c(-c2nc3cc(C(=O)NCCCc4ncc[nH]4)ccc3nc2-c2ccc(F)cc2)c1 [Compound I-365, 3-(2-chloro-5-methylphenyl)-2-(4-fluorophenyl)-N-[3-(1H-imidazol-2-yl)propyl]quinoxaline-6-carboxamide] | < 100 nM | 97% | 1%
O=C(NCCCc1ncc[nH]1)c1ccc2nc(C3CCOCC3)c(-c3ccc(F)cc3)nc2c1 [Compound I-366, 3-(4-fluorophenyl)-N-[3-(1H-imidazol-2-yl)propyl]-2-(tetrahydro-2H-pyran-4-yl)quinoxaline-6-carboxamide] | 500 to 1000 nM | 53% | 1%
CC(C)Oc1nc2ccc(C(=O)NCc3ccc4nccn4c3)cc2nc1-c1ccc(F)c(F)c1 [Compound I-367, 3-(3,4-Difluorophenyl)-N-(imidazo[1,2-a]pyridin-6-ylmethyl)-2-isopropoxyquinoxaline-6-carboxamide] | 500 to 1000 nM | 50% | 0%
O=C(NCCCc1ncc[nH]1)c1ccc2nc(-c3ccc(F)cc3)c(-c3ccc(F)s3)nc2c1 [Compound I-368, 2-(4-fluorophenyl)-3-(5-fluoro-2-thienyl)-N-[3-(1H-imidazol-2-yl)propyl]quinoxaline-6-carboxamide] | < 100 nM | > 99% | 1%
O=C(NCCCc1ncc[nH]1)c1ccc2nc(-c3ccc(F)cc3)c(-c3ccc(Cl)c(C(F)(F)F)c3)nc2c1 [Compound I-369, 3-[4-chloro-3-(trifluoromethyl)phenyl]-2-(4-fluorophenyl)-N-[3-(1H-imidazol-2-yl)propyl]quinoxaline-6-carboxamide] | < 100 nM | 93% | 2%
CC(=O)c1ccc(-c2nc3cc(C(=O)NCCCc4ncc[nH]4)ccc3nc2-c2ccc(F)cc2)s1 [Compound I-370, 3-(5-acetyl-2-thienyl)-2-(4-fluorophenyl)-N-[3-(1H-imidazol-2-yl)propyl]quinoxaline-6-carboxamide] | 500 to 1000 nM | 64% | 3%
CCCOc1nc2ccc(C(=O)NCCCc3ncc[nH]3)cc2nc1-c1ccc(F)cc1 [Compound I-371, 3-(4-fluorophenyl)-N-[3-(1H-imidazol-2-yl)propyl]-2-propoxyquinoxaline-6-carboxamide] | < 100 nM | 97% | 3%
O=C(NCCCc1ncc[nH]1)c1ccc2nc(O[C@@H]3CCOC3)c(-c3ccc(F)cc3)nc2c1 [Compound I-372, 3-(4-fluorophenyl)-N-[3-(1H-imidazol-2-yl)propyl]-2-[(3R)-tetrahydrofuran-3-yloxy]quinoxaline-6-carboxamide] | < 100 nM | > 99% | 2%
O=C(NCCCc1ncc[nH]1)c1ccc2nc(-c3ccc(F)cc3)c(-c3ccc(F)cc3F)nc2c1 [Compound I-373, 3-(2,4-difluorophenyl)-2-(4-fluorophenyl)-N-[3-(1H-imidazol-2-yl)propyl]quinoxaline-6-carboxamide] | 100 to 500 nM | 84% | 2%
O=C(NCCCc1ncc[nH]1)c1ccc2nc(-n3ccnn3)c(-c3ccc(F)cc3)nc2c1 [Compound I-374, 3-(4-fluorophenyl)-N-[3-(1H-imidazol-2-yl)propyl]-2-(1H-1,2,3-triazol-1-yl)quinoxaline-6-carboxamide] | 100 to 500 nM | 75% | 3%
CC(C)Sc1nc2ccc(C(=O)NCCCc3ncc[nH]3)cc2nc1-c1ccc(F)cc1 [Compound I-375, 3-(4-Fluorophenyl)-N-[3-(1H-imidazol-2-yl)propyl]-2-(isopropylsulfanyl)quinoxaline-6-carboxamide] | 100 to 500 nM | 80% | 2%
O=C(NCCc1ncc[nH]1)c1ccc2nc(-c3ccc(F)cc3)c(-c3cccc(Cl)c3)nc2c1 [Compound I-376, 3-(3-chlorophenyl)-2-(4-fluorophenyl)-N-[2-(1H-imidazol-2-yl)ethyl]quinoxaline-6-carboxamide] | 500 to 1000 nM | 30% | 52%
N#Cc1cc(-c2nc3cc(C(=O)NCCCc4ncc[nH]4)ccc3nc2-c2ccc(F)cc2)ccc1Cl [Compound I-377, 3-(4-chloro-3-cyanophenyl)-2-(4-fluorophenyl)-N-[3-(1H-imidazol-2-yl)propyl]quinoxaline-6-carboxamide] | 100 to 500 nM | 85% | 2%
O=C(NCCCc1ncc[nH]1)c1ccc2nc(OCC3CC4(COC4)C3)c(-c3ccc(F)cc3)nc2c1 [Compound I-378, 3-(4-fluorophenyl)-N-[3-(1H-imidazol-2-yl)propyl]-2-(2-oxaspiro[3.3]hept-6-ylmethoxy)quinoxaline-6-carboxamide] | < 100 nM | > 99% | 2%
O=C(NCCCc1ncc[nH]1)c1ccc2nc(OCC3CCOC3)c(-c3ccc(F)cc3)nc2c1 (stereo not drawn) [Compound I-379, 3-(4-fluorophenyl)-N-[3-(1H-imidazol-2-yl)propyl]-2-(tetrahydrofuran-3-ylmethoxy)quinoxaline-6-carboxamide] | < 100 nM | 100% | 2%
CC(C)Oc1nc2ccc(C(=O)NCCCc3cn[nH]c3)cc2nc1-c1ccc(F)cc1 [Compound I-380, 3-(4-Fluorophenyl)-2-isopropoxy-N-[3-(1H-pyrazol-4-yl)propyl]quinoxaline-6-carboxamide] | 500 to 1000 nM | 55% | 2%
O=C(NCCCc1ncc[nH]1)c1ccc2nc(-c3ccc(F)cc3)c(-c3cc(C(F)(F)F)ccc3Cl)nc2c1 [Compound I-381, 3-[2-chloro-5-(trifluoromethyl)phenyl]-2-(4-fluorophenyl)-N-[3-(1H-imidazol-2-yl)propyl]quinoxaline-6-carboxamide] | < 100 nM | 96% | 2%
CCc1ccc(-c2nc3cc(C(=O)NCCCc4ncc[nH]4)ccc3nc2-c2ccc(F)cc2)cc1 [Compound I-382, 3-(4-ethylphenyl)-2-(4-fluorophenyl)-N-[3-(1H-imidazol-2-yl)propyl]quinoxaline-6-carboxamide] | 500 to 1000 nM | 55% | 3%
